{"source": "paper PMC9964505", "about": "(International Journal of Molecular Sciences, 2023)", "key": {"[1]": {"system": "CCI-induced mechanical hypersensitivity in male rats", "experiment": "paw pressure test in chronic constriction injury (CCI) model", "quoted_text": "Prior to behavioral studies, the rats were habituated to the experimental conditions and handling. The common sciatic nerve of the right hindpaw was injured at the level of the middle of the thigh. Proximal to the sciatic trifurcation, four loose ligatures were tied around it with about 1 mm spacing using Mersilk sutures in anaesthetized rats (Xylazine 10 mg/kg i.p., Ketamine 60 mg/kg i.p.). Great care was taken to tie the ligatures, such that the diameter of the nerve was seen to be just barely constricted. Sham animals received only a skin and muscle incision. Fourteen days after the surgery, individual baseline values of the withdrawal threshold evoked by squeezing of the hind limb between a flat surface and a blunt pointer with an analgesimeter (Ugo Basile, Gemonio, Italy) were determined on both hindpaws while the animal was gently held in a restrained position. The analgesimeter exerted a steadily increasing force, and the reaction threshold was determined as the pressure (g) required to elicit paw withdrawal and/or vocalization. […] Dosing and testing were performed in a random order.\nStatistical analyses were conducted using GraphPad Prism (version 8.4.2) and p < 0.05 was considered to represent a significant difference."}, "[2]": {"system": "partial restraint stress-induced colonic hypersensitivity in female rats", "experiment": "colonic distension test in partial restraint stress model", "conditions": "for percentual anti-hypersensitivity activity on colonic hypersensitivity: mean of three trials", "quoted_text": "Animals were placed for 2 h in a plexiglas restraint cylinder in order to restrict, but not impede, body movements. Naïve control animals were allowed to move freely in their cages. Immediately after completion of the 2 h restraint stress period, 3 consecutive determinations of colonic sensitivity were performed every 20 min.\nColonic sensitivity was assessed by measuring the intra-colonic pressure required to induce a pain-related behavioral response during colonic distension (Electronic barostat, Distender Series IIRTM). Sedation is considered as a confounding factor in the assessment of pain, and therefore all experiments were performed in non-sedated conscious rats. In order to reduce bias, all experiments were performed by the same dedicated personnel within a study. The visceral pressure range was studied from 5 to 75 mmHg, but pain responses were typically evident at 30–35 mmHg. Briefly, a 5 cm balloon was gently inserted into the colon of conscious rats at 7 to 10 cm from the anus, and the catheter was taped to the base of the tail. After a 30 min acclimation period with the inserted balloon, colonic pressure was increased by 5 mmHg steps every 30 s, from 5 to 75 mmHg (cut-off), until pain-related elevation of the hind part of the rat body and/or a clearly visible abdominal contraction corresponding to severe cramp were evident.\nThe formula: ((Distension thresholdTNBS/PRS + veh − Distension thresholdnaïve + veh)/(Distension thresholdnaïve + veh)) × 100, was used to calculate percentual variation due to trinitrobenzene sulfonic acid administration or partial restraint stress, as compared to naïve rats. […] Statistical analyses were conducted using GraphPad Prism (version 8.4.2) and p < 0.05 was considered to represent a significant difference."}, "[3]": {"experiment": "plasma and brain exposure in male rats (CCI study and satellite rats)", "format": "in vivo, rat", "conditions": "independent of dose or sampling time", "description": "Terminal samples for concentration analyses were also collected from HC-070-treated sciatic nerve-injured male animals at the end of the paw pressure test, and from female rats at the end of the last colonic distension test in the partial restraint stress (PRS) study. Briefly, total blood was collected by intra-cardiac puncture on anaesthetized (3% Isoflurane, 3 L/min) animals into pre-cooled K3EDTA tubes. Samples were gently mixed, placed on ice, and centrifuged at the latest within 30 min after collection at 1600× g or 1710× g for 10 min at 4 °C. At least 100–200 µL of plasma was gently collected and immediately frozen at −80 °C. After decapitation, the whole brain was collected, rinsed with fresh ice-cold 0.9% NaCl solution, and thereafter frozen in dry ice and stored in a polypropylene tube at −80 °C."}, "incised mice": {"system": "incised mice", "set-up": "method as in PMID 34039739", "conditions": "hindpaw administration; cited from earlier work"}, "[4]": {"system": "trinitrobenzene sulfonic acid-induced colonic hypersensitivity in male rats", "experiment": "colonic distension test in TNBS-induced colonic hypersensitivity model", "format": "in vivo, rat", "conditions": "for mean percentual colonic anti-hypersensitivity activity: mean of four trials (30, 50, 70, 120 min)"}, "mice": {"system": "mice", "conditions": "mouse, in vivo, po; cited from earlier work"}, "[5]": {"experiment": "plasma protein binding, rapid equilibrium dialysis", "format": "in vitro ADME", "conditions": "rat plasma, 1 µg/mL, 37 °C, 4 h", "description": "Plasma protein binding studies were carried out in male Wistar Hannover rat plasma with heparin as the anticoagulant. All plasma samples were obtained from BioreclamationIVT (Baltimore, MD, USA). A Pierce Rapid Equilibrium Dialysis Device (RED) was used for the experiments. Aliquots of plasma (300 µL) containing the compound of interest (1 µg/mL) and phosphate-buffered saline (PBS) (500 µL) were added to the sample chamber and buffer chamber, respectively, on the RED device. The loaded dialysis plate was sealed and placed on a pre-heated shaker, and incubated at physiological temperature (+37 °C) for 4 h. After the incubation, aliquots of 50 µL for the donor and 200 µL for the receiver were removed from the chambers and placed into a 96-well plate. Plasma (50 µL) was added to the wells containing the receiver samples and 200 µL of PBS was added to the wells containing the donor samples. Two volumes of ACN were added to each well, and the samples were mixed and centrifuged, after which the supernatant was analysed by LC-MS/MS."}, "[6]": {"experiment": "terminal plasma and brain exposure in female rats (PRS study)", "format": "in vivo, rat", "conditions": "3-30 mg/kg p.o.", "description": "Briefly, total blood was collected by intra-cardiac puncture on anaesthetized (3% Isoflurane, 3 L/min) animals into pre-cooled K3EDTA tubes. […] At least 100–200 µL of plasma was gently collected and immediately frozen at −80 °C. After decapitation, the whole brain was collected, rinsed with fresh ice-cold 0.9% NaCl solution, and thereafter frozen in dry ice and stored in a polypropylene tube at −80 °C."}, "[7]": {"experiment": "brain homogenate binding, rapid equilibrium dialysis", "format": "in vitro ADME, rat", "conditions": "as fraction", "description": "The brain homogenate binding study was carried out in male Wistar Hannover brain homogenate, obtained from BioreclamationIVT (Baltimore, MD, USA). Brains were homogenized with two volumes of PBS prior to initiating the experiment. The instrumentation, volume ratios, incubation conditions, and sample preparation were the same as described above for plasma protein binding (brain homogenate used instead of plasma)."}, "[8]": {"system": "rat spared nerve injury model of neuropathic pain", "conditions": "amygdaloid application; cited from earlier work"}, "[9]": {"system": "mustard oil-induced visceral pain-related behaviors and hindpaw mechanical hypersensitivity", "conditions": "intraperitoneal, and oral to a lesser extent; cited from earlier work"}, "[10]": {"system": "persistent mechanical pain in mouse models", "set-up": "method as in PMID 34039739", "conditions": "hindpaw injection; mouse plantar incision, CFA and paclitaxel models; cited from earlier work"}, "[11]": {"system": "mechanical hypersensitivity in a mouse SNI model", "set-up": "method as in PMID 34039739", "conditions": "intra-plantar injection; cited from earlier work"}, "uninjured mice": {"system": "uninjured mice", "set-up": "method as in PMID 34039739", "conditions": "peripheral dosing; cited from earlier work"}}, "data": [{"smiles": "CN1CC[C@]23c4c5ccc(O)c4O[C@H]2[C@@H](O)C=C[C@H]3[C@H]1C5", "note": "[morphine]", "values": [{"measurement": "effect on mechanical withdrawal threshold of the non-injured control paw", "setting": "[1]; 3 mg/kg s.c.", "value": "statistically significantly increased"}, {"measurement": "effect on sustained CCI-induced mechanical hypersensitivity (reversal)", "setting": "[1]; 3 mg/kg s.c., first two time points (45, 75 min)", "value": "abolished"}, {"measurement": "effect on PRS-lowered visceral pain threshold", "setting": "[2]; 1 mg/kg s.c.", "value": "significant reversal"}, {"measurement": "percentual anti-hypersensitivity activity on colonic hypersensitivity", "setting": "[2]; 1 mg/kg s.c.", "value": 272, "unit": "%"}]}, {"smiles": "Cn1c(=O)n(CCCO)c(=O)c2c1nc(Oc1cccc(Cl)c1)n2Cc1ccc(Cl)cc1", "note": "[HC-070]", "values": [{"measurement": "reversal percentage of CCI-induced mechanical hypersensitivity, injured paw", "setting": "[1]; 3 mg/kg p.o., 45 min", "value": 34, "unit": "%"}, {"measurement": "effect on CCI-induced mechanical hypersensitivity (withdrawal threshold, injured paw)", "setting": "[1]; 10 mg/kg p.o., 75 min", "value": "significantly attenuated"}, {"measurement": "reversal percentage of CCI-induced mechanical hypersensitivity, injured paw", "setting": "[1]; 10 mg/kg p.o., 75 min", "value": 51, "unit": "%"}, {"measurement": "effect on CCI-induced mechanical hypersensitivity (withdrawal threshold, injured paw)", "setting": "[1]; 30 mg/kg p.o., 45 min", "value": "significantly attenuated"}, {"measurement": "reversal percentage of CCI-induced mechanical hypersensitivity, injured paw", "setting": "[1]; 30 mg/kg p.o., 45 min", "value": 62, "unit": "%"}, {"measurement": "KP,uu,BR (partitioning coefficient between unbound brain and plasma exposures)", "setting": "[3]", "value": "0.4–0.6"}, {"measurement": "percentual anti-hypersensitivity activity on colonic hypersensitivity", "setting": "[2]; 3 mg/kg p.o.", "value": 100, "unit": "%"}, {"measurement": "percentual anti-hypersensitivity activity on colonic hypersensitivity", "setting": "[2]; 10 mg/kg p.o.", "value": 181, "unit": "%"}, {"measurement": "percentual anti-hypersensitivity activity on colonic hypersensitivity", "setting": "[2]; 30 mg/kg p.o.", "value": 188, "unit": "%"}, {"measurement": "effect on colonic sensibility after PRS", "setting": "[2]; oral doses of 3, 10 and 30 mg/kg", "value": "dose-dependently restored"}, {"measurement": "effect on established postoperative mechanical hypersensitivity", "setting": "incised mice", "value": "alleviated"}, {"measurement": "effect on TNBS-induced colonic hypersensitivity (colonic distension threshold)", "setting": "[4]; 3 mg/kg p.o., at 70 and 120 min", "value": "significantly and in a dose-dependent manner attenuated"}, {"measurement": "mean percentual colonic anti-hypersensitivity activity", "setting": "[4]; 3 mg/kg p.o.", "value": 58, "unit": "%"}, {"measurement": "effect on TNBS-induced colonic hypersensitivity (colonic distension threshold)", "setting": "[4]; 10 mg/kg p.o., all time points (30-120 min)", "value": "reversed"}, {"measurement": "mean percentual colonic anti-hypersensitivity activity", "setting": "[4]; 10 mg/kg p.o.", "value": 99, "unit": "%"}, {"measurement": "effect on TNBS-induced colonic hypersensitivity (colonic distension threshold)", "setting": "[4]; 30 mg/kg p.o., all time points (30-120 min)", "value": "reversed"}, {"measurement": "mean percentual colonic anti-hypersensitivity activity", "setting": "[4]; 30 mg/kg p.o.", "value": 134, "unit": "%"}, {"measurement": "effect on locomotor activity", "setting": "mice", "value": "nor did oral HC-070 treatment alter the locomotor activity"}, {"measurement": "plasma protein binding", "setting": "[5]", "value": 99.5, "unit": "%"}, {"measurement": "KP,uu,BR (partitioning coefficient between unbound brain and plasma exposures)", "setting": "[6]", "value": "0.5–0.8"}, {"measurement": "unbound fraction in rat brain homogenate", "setting": "[7]", "value": 0.001}]}, {"smiles": "Cc1cc(N2CCCCC2)nc2ccccc12", "note": "[ML-204]", "values": [{"measurement": "effect on mechanical hypersensitivity and affective-like spontaneous pain-related behavior", "setting": "[8]", "value": "dose-dependent suppression"}, {"measurement": "effect on mustard oil-induced visceral pain-related behaviors and hindpaw mechanical hypersensitivity", "setting": "[9]", "value": "dose-dependently attenuated"}]}, {"smiles": "c1ccc(Cn2c(NCc3ccco3)nc3ccccc32)cc1", "note": "[AC1903]", "values": [{"measurement": "effect on persistent mechanical pain", "setting": "[10]", "value": "prevents the persistent mechanical pain"}, {"measurement": "effect on mechanical hypersensitivity", "setting": "[11]", "value": "failed to attenuate"}, {"measurement": "effect on naïve mechanical sensitivity", "setting": "uninjured mice", "value": "did not change"}]}]}
